Measurements published in PubChem BioAssay (NCI).
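Interpolation was linear, between the two tested concentrations surrounding the appropriate level; five concentrations were tested over 48 hours in 96-well plates. Definition used: TGI = concentration required for complete inhibition of growth.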

Tests used:
Assay in all cases: NCI tumour cell line growth inhibition, 48 h
LOX IMVI melanoma = tested on: LOX IMVI melanoma
DU-145 prostate = tested on: DU-145 prostate
HCT-116 colon = tested on: HCT-116 colon
PC-3 prostate = tested on: PC-3 prostate
UACC-62 melanoma = tested on: UACC-62 melanoma
ACHN renal = tested on: ACHN renal
NCI-H460 lung = tested on: NCI-H460 lung
MOLT-4 leukemia = tested on: MOLT-4 leukemia
SF-295 CNS = tested on: SF-295 CNS
OVCAR-3 ovarian = tested on: OVCAR-3 ovarian
COLO 205 colon = tested on: COLO 205 colon
SNB-75 CNS = tested on: SNB-75 CNS
HOP-62 NSCLC = tested on: HOP-62 NSCLC
SK-OV-3 ovarian = tested on: SK-OV-3 ovarian
OVCAR-8 ovarian = tested on: OVCAR-8 ovarian
SR leukemia = tested on: SR leukemia
MDA-MB-231 breast = tested on: MDA-MB-231 breast
HS 578T breast = tested on: HS 578T breast
U251 CNS = tested on: U251 CNS
TK-10 renal = tested on: TK-10 renal
HT29 colon = tested on: HT29 colon
HL-60(TB) leukemia = tested on: HL-60(TB) leukemia
MALME-3M melanoma = tested on: MALME-3M melanoma
K-562 leukemia = tested on: K-562 leukemia
MCF7 breast = tested on: MCF7 breast
NCI-H226 lung = tested on: NCI-H226 lung
IGROV1 ovarian = tested on: IGROV1 ovarian
HCT-15 colon = tested on: HCT-15 colon
EKVX NSCLC = tested on: EKVX NSCLC
BT-549 breast = tested on: BT-549 breast
SN12C renal = tested on: SN12C renal
SF-539 CNS = tested on: SF-539 CNS
KM12 colon = tested on: KM12 colon
MDA-N = tested on: MDA-N
RPMI-8226 leukemia = tested on: RPMI-8226 leukemia
OVCAR-5 ovarian = tested on: OVCAR-5 ovarian
UACC-257 melanoma = tested on: UACC-257 melanoma
SK-MEL-2 melanoma = tested on: SK-MEL-2 melanoma
CAKI-1 renal = tested on: CAKI-1 renal
SW-620 colon = tested on: SW-620 colon
SNB-19 CNS = tested on: SNB-19 CNS
MDA-MB-435 = tested on: MDA-MB-435
M14 melanoma = tested on: M14 melanoma
SK-MEL-5 melanoma = tested on: SK-MEL-5 melanoma
NCI-H23 lung = tested on: NCI-H23 lung
786-0 renal = tested on: 786-0 renal
NCI/ADR-RES ovarian = tested on: NCI/ADR-RES ovarian
RXF 393 renal = tested on: RXF 393 renal
CCRF-CEM leukemia = tested on: CCRF-CEM leukemia
A498 renal = tested on: A498 renal
SK-MEL-28 melanoma = tested on: SK-MEL-28 melanoma
SF-268 CNS = tested on: SF-268 CNS
UO-31 renal = tested on: UO-31 renal
A549 NSCLC = tested on: A549 NSCLC
NCI-H522 lung = tested on: NCI-H522 lung
HOP-92 NSCLC = tested on: HOP-92 NSCLC
OVCAR-4 ovarian = tested on: OVCAR-4 ovarian

Measured: TGI

CC(Cn1c(=O)oc2ccccc21)N(C)C (stereo unspecified)
> 100 µM: LOX IMVI melanoma | DU-145 prostate | HCT-116 colon | PC-3 prostate | UACC-62 melanoma | ACHN renal | NCI-H460 lung | MOLT-4 leukemia | SF-295 CNS | OVCAR-3 ovarian | COLO 205 colon | SNB-75 CNS | HOP-62 NSCLC | SK-OV-3 ovarian | OVCAR-8 ovarian | SR leukemia | MDA-MB-231 breast | HS 578T breast | U251 CNS | TK-10 renal | HT29 colon | HL-60(TB) leukemia | MALME-3M melanoma | K-562 leukemia | MCF7 breast | NCI-H226 lung | IGROV1 ovarian | HCT-15 colon | EKVX NSCLC | BT-549 breast | SN12C renal | SF-539 CNS | KM12 colon | MDA-N | RPMI-8226 leukemia | OVCAR-5 ovarian | UACC-257 melanoma | SK-MEL-2 melanoma | CAKI-1 renal | SW-620 colon | SNB-19 CNS | MDA-MB-435 | M14 melanoma | SK-MEL-5 melanoma | NCI-H23 lung | 786-0 renal | NCI/ADR-RES ovarian | RXF 393 renal | CCRF-CEM leukemia | A498 renal | SK-MEL-28 melanoma | SF-268 CNS

O=C1/C(=C/c2cccc([N+](=O)[O-])c2)Cc2ccccc21
> 100 µM: LOX IMVI melanoma | DU-145 prostate | HCT-116 colon | PC-3 prostate | UACC-62 melanoma | ACHN renal | UO-31 renal | NCI-H460 lung | MOLT-4 leukemia | SF-295 CNS | OVCAR-3 ovarian | COLO 205 colon | SNB-75 CNS | HOP-62 NSCLC | SK-OV-3 ovarian | A549 NSCLC | OVCAR-8 ovarian | SR leukemia | MDA-MB-231 breast | NCI-H522 lung | HS 578T breast | U251 CNS | TK-10 renal | HT29 colon | HL-60(TB) leukemia | MALME-3M melanoma | K-562 leukemia | MCF7 breast | NCI-H226 lung | HOP-92 NSCLC | IGROV1 ovarian | HCT-15 colon | EKVX NSCLC | BT-549 breast | SN12C renal | SF-539 CNS | KM12 colon | MDA-N | RPMI-8226 leukemia | OVCAR-5 ovarian | UACC-257 melanoma | SK-MEL-2 melanoma | CAKI-1 renal | SW-620 colon | SNB-19 CNS | MDA-MB-435 | M14 melanoma | NCI-H23 lung | 786-0 renal | NCI/ADR-RES ovarian | CCRF-CEM leukemia | OVCAR-4 ovarian | SK-MEL-28 melanoma | SF-268 CNS
